From PMC11062899, “De novo development of small cyclic peptides that are orally bioavailable” (Nature Chemical Biology, 2023)
Several values for one entry are separate records, joined by “and”; a condition that tells them apart may be missing. Equal values may be shown once. Read-outs that look alike come from different tables or passages of the source.

How the values were obtained:
rat α-thrombin = target: T1, rat α-thrombin (Rattus norvegicus, UniProt P18292); assay: Protease inhibition, Ki for rat α-thrombin (fluorogenic substrate Z-Gly-Gly-Arg-AMC); assay type: biochemical; conditions: rat alpha thrombin; for Slope normalized to DMSO (proteolytic substrate cleavage over time): replicates R1-R3
T1 construct: rat α-thrombin (Molecular Innovations) were used at final concentrations of 2 nM and 3 nM; purchased Molecular Innovations
Outline: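 Inhibition was measured as AMC fluorescence from 50 μM substrate, monitored for 30 min at 25 °C, relative to a peptide-free control. Human and rat enzymes were present at 2 nM and 3 nM final, respectively, in 50 mM Tris-HCl pH 7.4, 150 mM NaCl, 10 mM MgCl2, 1 mM CaCl2. Ki derives from fitted IC50 via Cheng–Prusoff.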

porcine pepsin = target: T2, porcine pepsin (Sus scrofa, UniProt P00791); assay: Peptide stability in simulated gastric fluid (SGF); assay type: in vitro ADME
T2 construct: 0.32 g of porcine pepsin (Sigma-Aldrich, P7125) was dissolved under gentle agitation; purchased Sigma-Aldrich P7125
T2 sequence (P00791 60-385): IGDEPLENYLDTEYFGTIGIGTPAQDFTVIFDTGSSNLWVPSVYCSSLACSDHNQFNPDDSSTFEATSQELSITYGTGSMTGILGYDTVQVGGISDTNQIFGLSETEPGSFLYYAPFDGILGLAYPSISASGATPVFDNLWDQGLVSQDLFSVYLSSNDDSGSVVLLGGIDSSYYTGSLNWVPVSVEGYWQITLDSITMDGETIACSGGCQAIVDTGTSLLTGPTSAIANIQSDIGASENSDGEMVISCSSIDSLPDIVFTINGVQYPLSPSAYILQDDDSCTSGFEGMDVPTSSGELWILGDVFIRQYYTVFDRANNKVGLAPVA
Outline: (§1)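 Peptide from a 1 mM DMSO stock was added to fluid pre-warmed at 37 °C. SGF was pH 1.2 NaCl with porcine pepsin (0.32 g per 100 ml), and SIF was pH 6.8 potassium phosphate with porcine pancreatin (1 g per 100 ml). Supernatant peptide was quantified by LC–MS, with residual expressed as T1/T0.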

[1] = Peptide stability in simulated intestinal fluid (SIF); assay type: in vitro ADME, porcine; conditions: simulated gi fluid; 8 h, 37 °C, pH 6.8; read-out: Proteolytic stability: SIF (8 h) % remaining
Outline: as §1

porcine pancreatin = assay: as above; assay type: in vitro ADME; conditions: after 8 h vs 0 h (TIC)
Outline: as §1

[2] = Passive artificial membrane permeability (PAMPA)
[3] = Metabolic stability in rat liver microsomes (RLMs); conditions: for microsomal CLint / half-life: rat, microsomes

- Ki (rat α-thrombin; average of R1-R3, read-out: Ki Average, rat alpha thrombin inhibition): 4.1 nM
- Slope normalized to DMSO (proteolytic substrate cleavage over time) (rat α-thrombin; peptide 1.02E-03 uM): 91.4 and 90.1 and 86.3
- Slope normalized to DMSO (proteolytic substrate cleavage over time) (rat α-thrombin; peptide 1.04E+00 uM): 6.1 and 5.3 and 3.6
- Slope normalized to DMSO (proteolytic substrate cleavage over time) (rat α-thrombin; peptide 1.27E-04 uM): 98.4 and 98.1 and 97.2
- Slope normalized to DMSO (proteolytic substrate cleavage over time) (rat α-thrombin; peptide 1.30E-01 uM): 10.0 and 9.6 and 8.5
- Slope normalized to DMSO (proteolytic substrate cleavage over time) (rat α-thrombin; peptide 1.59E-05 uM): 101.7 and 102.0 and 103.9
- Slope normalized to DMSO (proteolytic substrate cleavage over time) (rat α-thrombin; peptide 1.63E-02 uM): 36.7 and 39.2 and 35.6
- Slope normalized to DMSO (proteolytic substrate cleavage over time) (rat α-thrombin; peptide 1.67E+01 uM): 4.9 and 5.5
- Slope normalized to DMSO (proteolytic substrate cleavage over time) (rat α-thrombin; peptide 2.03E-03 uM): 80.6 and 80.8 and 78.9
- Slope normalized to DMSO (proteolytic substrate cleavage over time) (rat α-thrombin; peptide 2.08E+00 uM): 5.5 and 5.7 and 3.5
- Slope normalized to DMSO (proteolytic substrate cleavage over time) (rat α-thrombin; peptide 2.54E-04 uM): 97.2 and 96.7 and 93.7
- Slope normalized to DMSO (proteolytic substrate cleavage over time) (rat α-thrombin; peptide 2.60E-01 uM): 7.6 and 5.4 and 6.9
- Slope normalized to DMSO (proteolytic substrate cleavage over time) (rat α-thrombin; peptide 3.18E-05 uM): 100.1 and 100.5 and 98.3
- Slope normalized to DMSO (proteolytic substrate cleavage over time) (rat α-thrombin; peptide 3.26E-02 uM): 26.4 and 25.2 and 22.3
- Slope normalized to DMSO (proteolytic substrate cleavage over time) (rat α-thrombin; peptide 3.33E+01 uM): 4.6 and 5.2 and 4.1
- Slope normalized to DMSO (proteolytic substrate cleavage over time) (rat α-thrombin; peptide 4.07E-03 uM): 63.4 and 62.5 and 70.6
- Slope normalized to DMSO (proteolytic substrate cleavage over time) (rat α-thrombin; peptide 4.17E+00 uM): 4.9 and 5.8 and -9.8
- Slope normalized to DMSO (proteolytic substrate cleavage over time) (rat α-thrombin; peptide 5.09E-04 uM): 93.0 and 91.4 and 91.1
- Slope normalized to DMSO (proteolytic substrate cleavage over time) (rat α-thrombin; peptide 5.21E-01 uM): 5.7 and 6.4 and 5.0
- Slope normalized to DMSO (proteolytic substrate cleavage over time) (rat α-thrombin; peptide 6.36E-05 uM): 98.0 and 98.8 and 98.4
- Slope normalized to DMSO (proteolytic substrate cleavage over time) (rat α-thrombin; peptide 6.51E-02 uM): 15.4 and 15.1 and 13.7
- Slope normalized to DMSO (proteolytic substrate cleavage over time) (rat α-thrombin; peptide 6.67E+01 uM): 5.1 and 5.7 and 2.7
- Slope normalized to DMSO (proteolytic substrate cleavage over time) (rat α-thrombin; peptide 7.95E-06 uM): 105.0 and 102.5 and 101.4
- Slope normalized to DMSO (proteolytic substrate cleavage over time) (rat α-thrombin; peptide 8.14E-03 uM): 49.4 and 48.0 and 46.0
- Slope normalized to DMSO (proteolytic substrate cleavage over time) (rat α-thrombin; peptide 8.33E+00 uM): 5.4 and 5.3 and 3.8
- IC50 (rat α-thrombin; single replicates R1-R3, read-out: IC50, rat alpha thrombin inhibition): 7.27 nM and 7.19 nM and 7.91 nM
- SGF stability, Residual peptide Average (porcine pepsin; after 8 h vs 0 h (TIC), average of R1-R3): 106.20
- SGF stability, Residual peptide (porcine pepsin; after 8 h vs 0 h (TIC), single replicates R1-R3): 119.66 and 103.22 and 95.72
- remaining at 8 h (porcine pepsin; simulated gi fluid, 8 h, 37 °C, pH 1.2, read-out: Proteolytic stability: SGF (8 h) % remaining): 106 ± 12%
- remaining at 8 h [1]: 83 ± 14%
- SIF stability, Residual peptide Average (porcine pancreatin; average of R1-R3): 83.45
- SIF stability, Residual peptide (porcine pancreatin; single replicates R1-R3): 93.62 and 67.15 and 89.58
- PAMPA permeability: % permeability ([2]; 50 μM, 12–18 h, acceptor concentration relative to equilibrium): 31 ± 10%
- Papp at 50 μM ([2]; PAMPA, pH 7.4): 3.47 ×10⁻⁶ cm/s
- Permeability% Average ([2]; top well sample vs theoretical equilibrium sample (TIC), average of R1-R3): 30.8%
- Permeability% ([2]; top well sample vs theoretical equilibrium sample (TIC), single replicates R1-R3): 38.94% and 34.26% and 19.17%
- TIC value of compound, 0 min, R1 ([3]; rat liver microsomes, 0 min, replicate R1): 9508843
- TIC value of compound, 0 min, R3 ([3]; rat liver microsomes, 0 min, replicate R3): 9444065
- TIC value of compound, 5 min, R1 ([3]; rat liver microsomes, 5 min, replicate R1): 8851267
- TIC value of compound, 5 min, R3 ([3]; rat liver microsomes, 5 min, replicate R3): 7487448
- TIC value of compound, 15 min, R1 ([3]; rat liver microsomes, 15 min, replicate R1): 4635928
- TIC value of compound, 15 min, R3 ([3]; rat liver microsomes, 15 min, replicate R3): 4037534
- TIC value of compound, 30 min, R1 ([3]; rat liver microsomes, 30 min, replicate R1): 2932536
- TIC value of compound, 30 min, R3 ([3]; rat liver microsomes, 30 min, replicate R3): 1896940
- TIC value of compound, 60 min, R1 ([3]; rat liver microsomes, 60 min, replicate R1): 631769
- TIC value of compound, 60 min, R3 ([3]; rat liver microsomes, 60 min, replicate R3): 473870
- microsomal CLint ([3]; CL (ul/min/mg protein), R1, RLM CL, replicate R1, unrounded): 81.1 µL/min/mg
- microsomal CLint ([3]; CL (ul/min/mg protein), R2, RLM CL, replicate R2, unrounded): 98 µL/min/mg
- microsomal CLint ([3]; CL (ul/min/mg protein), R3, RLM CL, replicate R3, unrounded): 107 µL/min/mg
- half-life ([3]; Half Life (min), R1, RLM metabolic stability, replicate R1): 17.1 min
- half-life ([3]; Half Life (min), R2, RLM metabolic stability, replicate R2): 14.2 min
- half-life ([3]; Half Life (min), R3, RLM metabolic stability, replicate R3): 12.9 min
- half-life ([3]; Metabolic stability: Half life T1/2 (min), RLMs, mean and SD, three measurements): 14.7 ± 1.7 min
- microsomal CLint ([3]; Metabolic stability: RLM CL (ul/min/mg), RLMs, mean and SD, three measurements): 95 ± 11 µL/min/mg
- microsomal CLint ([3]; RLM CL, Average, average of R1-R3): 95.4 µL/min/mg
- microsomal CLint ([3]; RLM CL, R1, RLM CL, replicate R1, summary block): 81.1 µL/min/mg
- microsomal CLint ([3]; RLM CL, R2, RLM CL, replicate R2, summary block): 98 µL/min/mg
- microsomal CLint ([3]; RLM CL, R3, RLM CL, replicate R3, summary block): 107 µL/min/mg
SMILES: O=C1CSCCC[C@H](NC(=O)c2ccc(Cl)s2)C(=O)N[C@@H](Cc2ccccc2)C(=O)N2CCC[C@@H]2CC(=O)NCCSC1 [compound 37]
- Ki (rat α-thrombin; single replicates R1-R3, read-out: Ki, rat alpha thrombin inhibition): 4.03 nM (2×) and 3.98 nM (2×) and 4.38 nM (2×)
